Laboratory results published in PMC9182007, “Statistical Methods in the Study of Protein Binding and Its Relationship to Drug Bioavailability in Breast Milk” (Molecules, 2022).
Read-outs that look alike come from different tables or passages of the source.

How the values were obtained:
[1] = RP TLC on non-impregnated control plates; assay type: physicochemical; conditions: for CRP (Rf, control RP plate): Table S4, non-impregnated RP plate, acetonitrile/acetate buffer pH 7.4/methanol 60:20:20
[2] = molecular target: T1, human serum albumin (HSA) (Homo sapiens, UniProt P02768)
T1 sequence (P02768 25-609): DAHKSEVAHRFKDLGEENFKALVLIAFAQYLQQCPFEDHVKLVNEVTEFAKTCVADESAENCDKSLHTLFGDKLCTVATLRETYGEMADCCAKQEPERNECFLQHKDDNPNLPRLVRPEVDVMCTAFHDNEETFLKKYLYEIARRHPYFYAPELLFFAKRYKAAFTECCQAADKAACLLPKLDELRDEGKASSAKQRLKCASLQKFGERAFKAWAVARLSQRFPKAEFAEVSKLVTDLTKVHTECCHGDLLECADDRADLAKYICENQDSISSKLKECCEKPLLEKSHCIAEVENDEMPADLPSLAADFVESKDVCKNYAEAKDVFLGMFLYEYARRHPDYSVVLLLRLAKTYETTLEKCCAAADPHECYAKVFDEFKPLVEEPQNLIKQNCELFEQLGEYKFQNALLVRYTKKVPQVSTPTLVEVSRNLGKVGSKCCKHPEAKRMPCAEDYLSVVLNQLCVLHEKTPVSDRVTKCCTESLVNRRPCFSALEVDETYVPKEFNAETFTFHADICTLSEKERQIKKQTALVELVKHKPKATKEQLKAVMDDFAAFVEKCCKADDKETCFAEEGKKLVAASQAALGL

[3] = source not stated, cited from earlier work
[4] = cited from earlier work
[5] = molecular target: T2, bovine serum albumin (BSA) (Bos taurus, UniProt P02769); experiment: RP TLC on plates impregnated with bovine serum albumin; assay type: binding; conditions: for RP (Rf, BSA-impregnated RP plate): Table S4, RP plate impregnated with 2 mg/mL BSA, pH 7.4 mobile phase
T2 construct: purchased Sigma Aldrich
T2 sequence (P02769 25-607): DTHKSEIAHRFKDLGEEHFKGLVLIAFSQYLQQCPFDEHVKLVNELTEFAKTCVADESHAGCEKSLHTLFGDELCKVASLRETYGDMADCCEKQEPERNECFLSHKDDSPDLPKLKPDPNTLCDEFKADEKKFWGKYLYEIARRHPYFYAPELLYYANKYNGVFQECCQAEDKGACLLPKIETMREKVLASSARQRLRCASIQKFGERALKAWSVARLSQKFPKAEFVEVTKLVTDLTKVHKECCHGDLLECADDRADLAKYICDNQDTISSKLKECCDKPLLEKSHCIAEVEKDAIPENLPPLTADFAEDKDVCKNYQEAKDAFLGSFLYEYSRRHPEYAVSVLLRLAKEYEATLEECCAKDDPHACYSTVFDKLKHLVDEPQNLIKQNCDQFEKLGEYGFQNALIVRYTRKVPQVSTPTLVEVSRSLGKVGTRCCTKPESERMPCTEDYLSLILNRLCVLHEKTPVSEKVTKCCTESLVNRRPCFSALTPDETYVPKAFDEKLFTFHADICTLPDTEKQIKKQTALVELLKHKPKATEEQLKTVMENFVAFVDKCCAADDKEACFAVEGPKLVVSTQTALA

[6] = test system: plasma protein; conditions: ref DrugBank [7], cited from earlier work
[7] = NP TLC on non-impregnated control plates; assay type: physicochemical; conditions: for CNP (Rf, control NP plate): Table S3, non-impregnated NP plate, acetonitrile/acetate buffer pH 7.4/methanol 60:20:20
[8] = molecular target: T2, bovine serum albumin (BSA); experiment: NP TLC on plates impregnated with bovine serum albumin; assay type: binding; conditions: for NP (Rf, BSA-impregnated NP plate): Table S3, NP plate impregnated with 2 mg/mL BSA, pH 7.4 mobile phase
[9] = HPLC on immobilized artificial membrane column (HPLCIAM); assay type: physicochemical; conditions: for log k IAM: Table S5, IAM column, pH 7.4; for k IAM: Table S5, retention factor, IAM column, phosphate buffer pH 7.4/acetonitrile 80:20
Method: High performance liquid chromatography was performed using immobilized human serum albumin column (HPLCHSA) and immobilized artificial membrane (HPLCIAM). HPLC was the source of the log k values (logarithm of retention factor), log kHSA and log kIAM.
The second experiment was performed using an immobilized artificial membrane (IAM) column. The assay was also performed on a Perkin Elmer Series 200 instrument connected to a UV-VIS spectrometer as the detector. The analytical wavelength was the same for all compounds, at 210 nm. […] The mobile phase was a mixture of 10 mM phosphate buffer pH 7.4 and acetonitrile in the ratio 80:20 (v/v). The phosphate buffer was obtained by dissolving the finished tablet in the appropriate amount of distilled water (1 tablet per 200 mL). In this case, it was not necessary to adjust the pH of the buffer using a pH meter.
The phase flow through the system was set to 0.5 mL/min as recommended by the column manufacturer. The solutions were delivered to the column using an autosampler syringe, the injection size was 10 µL.
The experiment was then repeated and the collected retention rates were the mean values of both series.

[10] = molecular target: T1, human serum albumin (HSA); experiment: in vitro; conditions: immobilized hsa column, pH 7.4
[11] = ref DrugBank [7], cited from earlier work
[12] = Milk-to-plasma (M/P) drug concentration ratio obtained in vivo, from literature; design: species or system human; conditions: Table S1, scale of drug penetration into milk 1-4
[13] = Table S6, external group (n = 38), given as fraction
[14] = Table S1, plasma protein binding given as fraction
[15] = Table S5, retention factor, HSA column, pH 7.4, 25 degrees Celsius
[16] = Table S1, milk/plasma drug concentration ratio, in vivo
[17] = human, immobilized hsa column, pH 7.4

SMILES	chromatographic logD [10]	CRP (Rf, control RP plate) [1]	BB vivo ([3]; Table S1)	RP (Rf, BSA-impregnated RP plate) [5]	PB [6, 14]	CNP (Rf, control NP plate) [7]	NP (Rf, BSA-impregnated NP plate) [8]	log k IAM [9]	k IAM [9]	k HSA [2, 15]	CNS+/- ([11]; Table S1, coded 1/0)	further results
CN(C)CCC=C1c2ccccc2CCc2ccccc21 [amitriptyline]	0.77											CRP (Rf value from the non-impregnated RP plate, control) ([1]; Table S8, external group): 0.67; kHSA ([2]; Table S9, external group): 5.87; BB vivo ([3]; Table S6, external group): 0.89; M/P ([4]; Table S6, external group (n = 38)): 0.92; RP (Rf value from the RP plate impregnated with 2 mg/mL BSA solution) ([5]; Table S8, external group): 0.63; PB [6, 13]: 0.95; CNP (Rf value from the non-impregnated NP plate, control) ([7]; Table S8, external group): 0.32; NP (Rf value from the NP plate impregnated with 2 mg/mL BSA solution) ([8]; Table S8, external group): 0.31; log kIAM ([9]; Table S9, external group): 0.19; CNS+/- ([11]; Table S6, external group, coded 1/0): 1
CC(C)C[C@H]1C(=O)N2CCC[C@H]2[C@]2(O)O[C@](NC(=O)[C@@H]3C=C4c5cccc6[nH]c(Br)c(c56)C[C@H]4N(C)C3)(C(C)C)C(=O)N12 [bromocriptine]	0.91	0.69	-1.100	0.70	0.93	0.95	0.96	1.10	12.69			k HSA ([2]; pH 7.4): 8.09
O=C1CC2(CCCC2)CC(=O)N1CCCCN1CCN(c2ncccn2)CC1 [buspirone]			0.480					0.84	7.00			
NC(=O)N1c2ccccc2C=Cc2ccccc21 [carbamazepine]		0.83	-0.070	0.84	0.76	0.95	0.95	0.18	1.50	1.09	1	log k HSA ([2]; Table S5, HSA, pH 7.4): 0.04; M/P [4, 16]: 0.558; M/P code [12]: 2 (2 corresponds to the range of 0.40–0.80—at the safety limit)
CN(C)CCCN1c2ccccc2Sc2ccc(Cl)cc21 [chlorpromazine]	1.12	0.49	0.950	0.50	0.9	0.43	0.43	1.77	58.85	13.33		
CN/C(=N/CCSCc1nc[nH]c1C)NC#N [cimetidine]	-0.17	0.88	-1.420	0.87	0.17	0.64	0.67	-0.58	0.26	0.67	0	M/P [4, 16]: 1.7; M/P code [12]: 4 (4 is M/P >1.20—dangerous)
CCO [ethanol]												BB vivo ([3]; Table S6, external group): -0.16; PB [6, 13]: 0.00
OCCOCCN1CCN(C(c2ccccc2)c2ccc(Cl)cc2)CC1 (centres unmarked) [hydroxyzine]	0.57		0.285		0.93	0.55	0.55	1.14	13.82	3.69	1	
COc1ccc2c(c1)c(CC(=O)O)c(C)n2C(=O)c1ccc(Cl)cc1 [indomethacin]			-1.260		0.97			0.03	1.08			
Nc1nnc(-c2cccc(Cl)c2Cl)c(N)n1 [lamotrigine]		0.87	0.480		0.55	0.89		-0.15	0.71			
O=C1Nc2ccc(Cl)cc2C(c2ccccc2Cl)=NC1O (centres unmarked) [lorazepam]			0.440		0.87			0.96	9.04			k HSA ([2]; pH 7.4): 2.21
CN1CCN2c3ncccc3Cc3ccccc3C2C1 (centres unmarked) [mirtazapine]	0.47	0.58	0.530	0.58		0.39	0.39	0.77	5.83	2.96	1	M/P [4, 16]: 1.1; M/P code [12]: 3 (3 range 0.81–1.20—possibly over the safety limit)
CC(=O)Nc1ccc(O)cc1 [paracetamol]		0.92	-0.463	0.92	0.25	0.93	0.94	-0.49	0.32	0.28	1	log k HSA ([2]; Table S5, HSA, pH 7.4): -0.55; M/P [4, 16]: 0.84; M/P code [12]: 3 (3 range 0.81–1.20—possibly over the safety limit)
CCCN1C[C@H](CSC)C[C@@H]2c3cccc4[nH]cc(c34)C[C@H]21 [pergolide]		0.55	0.300	0.53	0.9	0.48	0.47			0.07	1	log k HSA [2, 17]: -1.15
CN(C)CCCN1c2ccccc2Sc2ccccc21 [promazine]		0.51	0.880	0.51	0.94	0.39	0.37	-1.02	0.10	8.9	1	log k HSA [2, 17]: 0.95
CN(C)CCc1c[nH]c2ccc(Cn3cncn3)cc12 [rizatriptan]			0.780			0.20	0.20	0.40	2.53	2.06	1	log k HSA [2, 17]: 0.31
Cn1c(=O)c2[nH]cnc2n(C)c1=O [theophylline]			-0.341					-0.94	0.12			
CSc1ccc2c(c1)N(CCC1CCCCN1C)c1ccccc1S2 (centres unmarked) [thioridazine]		0.40	0.285	0.40		0.47	0.43	1.68	47.61	18.57		log k HSA [2, 17]: 1.27
CCCC(CCC)C(=O)O [valproic acid]	0.65	0.04		0.04	0.85	0.69	0.67	-1.09	0.08	4.46	1	M/P [4, 16]: 0.05; M/P code [12]: 1 (Code 1 corresponds to drugs with an M/P value <0.40—completely safe)
Cc1ccc(-c2nc3ccc(C)cn3c2CC(=O)N(C)C)cc1 [zolpidem]			-0.480					0.42	2.60			k HSA ([2]; pH 7.4): 1.77
